Laboratory results from patent US20250352500A1, “USE OF PHENOLIC ACIDS DERIVATIVES IN TREATING ISCHEMIC STROKE” (LANZHOU UNIVERSITY, priority 2022, published 2025).

How the values were obtained:
Format in all cases: in vivo, male C57/BL mice
iba1 = iba1 protein Western blot in brain tissue; conditions: for iba1 protein expression reduced compared with MCAO group: three days of administration, compound 2 100 mg/kg, compound 1 50 mg/kg
Experimental: (§1) Grouping and administration method: Male C57/BL mice weighing 23±1 g were randomly divided into sham operation group (SHAM), model group (MCAO), compound 2 group (100 mg/kg), and compound 1 group (50 mg/kg), with 10 mice in each group. Mice in the SHAM group underwent vascular isolation, but no […] was administered, and no treatment was given before or after surgery. The model group mice were constructed with MCAO models and were not treated before and after surgery. The treatment group was treated with compound 2 or compound 1 on the basis of the model group. Mice with a neurological score of 0 after reperfusion and those that died before 72 hours post-surgery were excluded. The administration time for animal behavior tests was seven times at 0 h, 1 day, 2 days, 3 days, 4 days, 5 days, and 6 days after reperfusion, while the administration time for other experiments was three times at 0 h, 1 day, and 2 days after reperfusion. The drug was administered through the tail vein, and the sham operation group and model group were given equal amounts of saline.
The expression level of the specific protein iba1 in microglia in brain tissues was detected by Western blot. (A) The representative WB images of iba1 protein expression in brain tissues of the sham operation group (SHAM), model group (MCAO), compound 2 group, and compound 1 group are shown in FIG. 8A, and the quantitative statistical results are shown in FIG. 8B. […] Compared with the MCAO group, the expression of iba1 protein decreased three days after administration of compound 1. Compared with the compound 1 group, the expression level of iba1 protein in the compound 2 group decreased. In this experiment, β-actin was used as the internal reference protein. n=3, data are presented as mean±SEM, analyzed with one-way ANOVA, and subjected to Tukey's HSD test. *P<0.05, **P<0.01, ***P<0.001. ^#P<0.05, ^##P<0.01, ^###P<0.001. * indicates comparison with the SHAM group, ^# indicates a comparison with the Compound 2 group.

TNF-α [1] = assay: RT-qPCR of TNF-α mRNA in brain tissue; conditions: 72 h, three days of administration, compound 2 100 mg/kg, compound 1 50 mg/kg, P<0.05
Experimental: as §1, with “The administration time for animal behavior tests was seven times at 0 h, 1 day, 2 days, 3 days, 4 days, 5 days, and 6 days after reperfusion, while the administration time for other experiments was three times at 0 h, 1 day, and 2 days after reperfusion. The drug was administered through the tail vein, and the sham operation group and model group were given equal amounts of saline.” left out
(§2) To investigate the effect of compounds on the expression of inflammatory factors after ischemia-reperfusion, this study used immunofluorescence experiments to observe the expression of TNF-α, IL-1β, IL-6, iNOS, and COX2 proteins in brain tissue. […] The concentrations of TNF-α, IL-1β, and IL-6 in brain homogenate were detected by enzyme-linked immunosorbent assay (ELISA), and the expression level of TNF-α protein in brain tissue was detected by Western blot.
After 72 hours of ischemia-reperfusion, the mRNA expression levels of TNF-α, IL-1β, IL-6, iNOS, and COX2 in brain tissue were detected and analyzed by RT-qPCR. […]

TNF-α [2] = assay: TNF-α immunofluorescence in brain tissue; conditions: 72 h ischemia-reperfusion; compound 2 100 mg/kg, compound 1 50 mg/kg; MCAO group 361±48; mean±SEM, n=3
Experimental: as §1, with “The administration time for animal behavior tests was seven times at 0 h, 1 day, 2 days, 3 days, 4 days, 5 days, and 6 days after reperfusion, while the administration time for other experiments was three times at 0 h, 1 day, and 2 days after reperfusion. The drug was administered through the tail vein, and the sham operation group and model group were given equal amounts of saline.” left out
as §2
After 72 hours of ischemia-reperfusion, the expression changes of inflammatory factors such as TNF-α, IL-1β, IL-6, iNOS, and COX2 in brain regions were analyzed by immunofluorescence staining. […]

GFAP = GFAP protein Western blot in brain tissue; conditions: for GFAP protein expression reduced compared with MCAO group: 72 h ischemia-reperfusion, three days of administration, compound 2 100 mg/kg, compound 1 50 mg/kg
Experimental: as §1
After 72 hours of ischemia-reperfusion, the protein expression level of GFAP, a marker of astrocytes in brain tissue, was detected with Western blot. The representative Western blot (WB) images of GFAP protein expression in the brain tissues of the sham operation group (SHAM), model group (MCAO), compound 2 group, and compound 1 group are shown in FIG. 6A, and the quantitative statistical results are shown in FIG. 6B. […] In this experiment, β-actin was used as an internal reference protein. n=3, data are mean±SEM, analyzed using one-way ANOVA and Tukey's HSD test. *P<0.05, **P<0.01, ***P<0.001. ^#P<0.05, ^##P<0.01, ^###P<0.001. * indicates comparison with the SHAM group, # indicates comparison with the compound 2 group.

HIF-1α = HIF-1α protein Western blot in brain tissue; conditions: 72 h; for HIF-1α protein expression reduced compared with MCAO model group: three days of administration, compound 2 100 mg/kg, compound 1 50 mg/kg
Experimental: as §1
HIF-1α is a sensitive regulator of oxygen homeostasis, rapidly inducing its expression after hypoxia-ischemia. It plays a wide range of roles in the pathophysiology of stroke, including neuronal survival, neuroinflammation, angiogenesis, glucose metabolism, and blood-brain barrier regulation. It can not only produce specific sensations in the case of hypoxia, but also facilitate the maintenance of oxygen homeostasis in the body. […]
After 72 hours of ischemia-reperfusion, the expression level of HIF-1α protein in brain tissue was detected by Western blot. […] In this experiment, β-actin was used as the internal reference protein. n=3, data are mean±SEM, analyzed using one-way ANOVA and Tukey's HSD test. *P<0.05, **P<0.01, ***P<0.001. ^#P<0.05, ^##P<0.01, ^###P<0.001. * indicates a comparison with the SHAM group, ^# indicates a comparison with the compound 2 group.

[3] = compound 2 100 mg/kg vs compound 1 50 mg/kg

Structure (SMILES) | iba1 protein expression reduced compared with MCAO group (iba1) | TNF-α mRNA expression compared with MCAO group (TNF-α [1]) | Number of TNF-α-positive cells (TNF-α [2]) | GFAP protein expression reduced compared with MCAO group (GFAP) [%] | HIF-1α protein expression reduced compared with MCAO model group (HIF-1α) [%] | iba1 protein expression level compared with the compound 1 group (iba1; [3]) | GFAP protein expression reduced compared with the compound 1 group (GFAP; 72 h, compound 2 100 mg/kg vs compound 1 50 mg/kg, P<0.05) [%] | HIF-1α protein expression level compared with the compound 1 group (HIF-1α; [3])
O=C(O)c1cc(O)ccc1O [compound 1] | decreased | significantly reduced | 244±36 /mm^2 | 25±10 | 46±10 | – | – | –
O=C(O)c1cc(OP(=O)(O)O)ccc1OP(=O)(O)O [compound 2] | 50±12% | significantly reduced | 140±35 /mm^2 | 43±12 | 53±10 | decreased | 45±10 | significantly reduced
